Results: patent US20250205344A1, “2,4-DIOXOTETRAHYDROPYRIMIDINYL DERATIVES AS DEGRONS IN PROTACS” (GLAXOSMITHKLINE INTELLECTUAL PROPERTY DEVELOPMENT LIMITED, priority 2022, published 2025)
Counter-ions that a name gives are not always drawn.

Molecular target: T1, Androgen Receptor (Homo sapiens, UniProt P10275, T878A)
T1 construct: the AR gene was modified, using CRISPR/Cas9 editing, so the expressed AR protein included an 11 amino acid HiBiT tag; endogenous in cells; host or cells: clonal LnCaP-derived line, AR gene edited by CRISPR/Cas9
T1 sequence (P10275 whole entry T878A): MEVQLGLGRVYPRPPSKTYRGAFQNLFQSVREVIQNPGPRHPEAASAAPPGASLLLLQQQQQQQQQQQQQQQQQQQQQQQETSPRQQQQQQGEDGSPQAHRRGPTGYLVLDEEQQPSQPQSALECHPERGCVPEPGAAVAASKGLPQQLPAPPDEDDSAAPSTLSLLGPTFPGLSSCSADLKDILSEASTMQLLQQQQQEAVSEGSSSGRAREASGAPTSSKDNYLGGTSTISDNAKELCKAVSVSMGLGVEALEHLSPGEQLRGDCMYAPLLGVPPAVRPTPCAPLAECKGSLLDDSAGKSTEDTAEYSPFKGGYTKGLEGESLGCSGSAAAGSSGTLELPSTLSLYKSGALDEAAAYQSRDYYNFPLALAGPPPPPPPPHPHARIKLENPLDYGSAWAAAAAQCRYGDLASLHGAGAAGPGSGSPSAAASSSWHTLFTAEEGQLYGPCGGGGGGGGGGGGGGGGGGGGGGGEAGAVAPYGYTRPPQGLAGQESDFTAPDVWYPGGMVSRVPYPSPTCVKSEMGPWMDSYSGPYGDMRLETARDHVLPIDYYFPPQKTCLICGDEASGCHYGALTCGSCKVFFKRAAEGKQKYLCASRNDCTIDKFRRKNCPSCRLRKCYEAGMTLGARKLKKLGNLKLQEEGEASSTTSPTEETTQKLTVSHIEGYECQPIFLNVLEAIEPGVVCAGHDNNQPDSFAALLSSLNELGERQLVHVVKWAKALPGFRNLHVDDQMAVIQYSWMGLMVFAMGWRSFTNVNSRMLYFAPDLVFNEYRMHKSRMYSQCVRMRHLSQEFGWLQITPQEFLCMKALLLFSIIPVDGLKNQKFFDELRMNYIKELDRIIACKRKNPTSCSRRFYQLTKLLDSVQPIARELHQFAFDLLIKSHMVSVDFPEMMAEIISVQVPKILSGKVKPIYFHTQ
T1 sequence (Q96SW2 whole entry partner): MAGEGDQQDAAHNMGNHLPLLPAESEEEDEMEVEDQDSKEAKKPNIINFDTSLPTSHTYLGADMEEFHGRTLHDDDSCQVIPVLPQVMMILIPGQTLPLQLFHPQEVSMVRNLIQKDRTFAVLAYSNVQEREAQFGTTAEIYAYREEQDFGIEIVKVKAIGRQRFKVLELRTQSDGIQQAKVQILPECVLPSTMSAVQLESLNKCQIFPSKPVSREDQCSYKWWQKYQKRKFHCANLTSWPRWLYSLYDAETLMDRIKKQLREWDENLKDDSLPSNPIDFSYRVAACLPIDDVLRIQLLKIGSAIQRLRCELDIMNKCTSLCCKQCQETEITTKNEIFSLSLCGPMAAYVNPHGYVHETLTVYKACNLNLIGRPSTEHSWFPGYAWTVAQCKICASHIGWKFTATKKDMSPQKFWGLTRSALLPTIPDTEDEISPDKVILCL
T1 sequence (Q16531 whole entry partner): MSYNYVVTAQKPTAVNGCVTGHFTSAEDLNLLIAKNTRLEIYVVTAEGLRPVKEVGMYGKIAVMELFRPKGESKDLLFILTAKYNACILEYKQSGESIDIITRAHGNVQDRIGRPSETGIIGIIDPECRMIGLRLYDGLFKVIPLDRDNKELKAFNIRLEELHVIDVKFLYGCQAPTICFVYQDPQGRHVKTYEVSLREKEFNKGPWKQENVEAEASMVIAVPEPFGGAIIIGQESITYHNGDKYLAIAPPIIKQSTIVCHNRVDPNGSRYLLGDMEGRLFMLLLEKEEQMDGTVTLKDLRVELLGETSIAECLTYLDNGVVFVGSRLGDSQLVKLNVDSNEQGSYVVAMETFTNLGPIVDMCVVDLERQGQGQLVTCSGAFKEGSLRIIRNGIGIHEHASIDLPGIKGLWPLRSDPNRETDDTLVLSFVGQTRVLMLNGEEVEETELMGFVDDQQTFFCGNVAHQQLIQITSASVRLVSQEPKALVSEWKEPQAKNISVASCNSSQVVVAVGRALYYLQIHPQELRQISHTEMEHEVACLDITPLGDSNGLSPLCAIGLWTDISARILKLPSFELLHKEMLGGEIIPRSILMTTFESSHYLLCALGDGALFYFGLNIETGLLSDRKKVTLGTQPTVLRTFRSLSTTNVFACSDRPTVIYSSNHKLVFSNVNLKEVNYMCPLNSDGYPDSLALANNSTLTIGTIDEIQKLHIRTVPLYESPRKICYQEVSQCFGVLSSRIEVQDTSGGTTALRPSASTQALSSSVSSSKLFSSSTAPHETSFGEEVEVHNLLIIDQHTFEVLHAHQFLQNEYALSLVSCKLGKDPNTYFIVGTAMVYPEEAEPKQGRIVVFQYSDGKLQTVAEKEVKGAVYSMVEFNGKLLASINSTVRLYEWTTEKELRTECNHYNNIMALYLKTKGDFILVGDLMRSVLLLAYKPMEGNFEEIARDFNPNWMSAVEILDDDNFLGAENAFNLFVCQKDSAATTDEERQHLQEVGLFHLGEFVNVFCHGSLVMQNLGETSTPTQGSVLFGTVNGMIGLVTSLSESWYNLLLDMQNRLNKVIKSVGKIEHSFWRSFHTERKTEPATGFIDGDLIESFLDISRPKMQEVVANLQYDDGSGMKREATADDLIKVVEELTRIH
Experiment: Androgen Receptor Degradation Assay (Nano-Glo HiBiT)
Assay type: cell-based
Conditions: LNCaP, 18 h, HiBiT-tagged AR in human LnCaP cells, read-out: mean asymptote max
Method: Degradation of Androgen Receptor protein in human LnCaP cells treated with PROTACs was quantified using the Nano-Glo® HiBiT Lytic Detection System (Promega) in 384 well assay plate format. A clonal LnCaP derived cell line was first established in which the AR gene was modified, using CRISPR/Cas9 editing, so the expressed AR protein included an 11 amino acid HiBiT tag at its amino-terminus. 10 mM DMSO stock solutions of PROTACs were prepared and diluted across an 11 concentration, 3 fold increment range, and 25 nL dispensed into a white opaque bottomed 384 well assay plate (Thermofisher) using an acoustic ECHO dispenser (Labcyte). […] For the assay, cells were detached from flask and resuspended with assay medium (FluoroBrite™ DMEM supplemented with 10% heat inactivated FBS, penicillin 50 U/mL and streptomycin 50 ug/mL (Thermofisher)). The cell suspension was centrifuged at 400 g for 5 min and the pellet resuspended in assay medium. 25 μL of cell suspension containing 10,000 cells was dispensed into each well of the assay plate containing the test compounds, which was then incubated for 18 h at 37° C./5% CO2. Control wells were included on each assay plate, with assay medium without cells being the no AR remaining 100% effect control, and cells treated with DMSO vehicle only, without PROTAC, the 0% effect control. 25 μL of Nano-Glo® HiBiT lysis buffer supplemented with LgBiT protein and Nano-Glo® substrate (Promega) was added to each well and the plate shaken at 500 rpm for 10 min at room temperature. The intensity of luminescence was measured using a PHERAstar microplate reader (BMG Labtech) and the % AR protein remaining in each well calculated by normalising the raw luminescence value to the above control wells. Parameters corresponding to the potency and efficacy estimates of the PROTACs were obtained from these normalised luminescence values using software (IDBS ActivityBase). These included the DC50 and the Dmax estimates. Two versions of the DC50, called relative DC50 and absolute DC50, were typically generated. These are the inflection point of a fitted 4 parameter sigmoidal response curve and the interpolated concentration of PROTAC corresponding to 50% of the protein being degraded, respectively. The Dmax parameter was the maximum experimentally observed degradation and the asymptote max parameter the fitted response curve asymptote maximum.

Row | Compound | Dmax [%]
1 | CN(C)C(=O)c1cc(N2CCC(=O)NC2=O)c2ccn(C3CCN(CC4CCN(c5ccc(C(=O)N[C@H]6CC[C@H](Oc7ccc(C#N)c(Cl)c7)CC6)nn5)CC4)CC3)c2c1 [EAR35, 1-(1-((1-(6-(((1r,4r)-4-(3-Chloro-4-cyanophenoxy)cyclohexyl)carbamoyl)pyridazin-3-yl)piperidin-4-yl)methyl)piperidin-4-yl)-4-(2,4-dioxotetrahydropyrimidin-1(2H)-yl)-N,N-dimethyl-1H-indole-6-carboxamide] | ≥ 50
2 | N#Cc1ccc(O[C@H]2CC[C@H](NC(=O)c3ccc(N4CCCC(CN5CCC(n6ncc7c(N8CCC(=O)NC8=O)cccc76)CC5)C4)nn3)CC2)cc1Cl (some centres unmarked) [EAR36, N-((1r,4r)-4-(3-Chloro-4-cyanophenoxy)cyclohexyl)-6-(3-((4-(4-(2,4-dioxotetrahydropyrimidin-1(2H)-yl)-1H-indazol-1-yl)piperidin-1-yl)methyl)piperidin-1-yl)pyridazine-3-carboxamide] | ≥ 50
3 | N#Cc1ccc(O[C@H]2CC[C@H](NC(=O)c3cnc(N4CCC(CN5CCC(n6ncc7c(N8CCC(=O)NC8=O)cccc76)CC5)CC4)cn3)CC2)cc1C(F)(F)F [EAR38, N-((1r,4r)-4-(4-Cyano-3-(trifluoromethyl)phenoxy)cyclohexyl)-5-(4-((4-(4-(2,4-dioxotetrahydropyrimidin-1(2H)-yl)-1H-indazol-1-yl)piperidin-1-yl)methyl)piperidin-1-yl)pyrazine-2-carboxamide hydrochloride] | ≥ 50
4 | N#Cc1ccc(O[C@H]2CC[C@H](NC(=O)c3cnc(N4CCC(CN5CCC(n6ncc7c(N8CCC(=O)NC8=O)cccc76)CC5)CC4)cn3)CC2)cc1Cl [EAR39, N-((1r,4r)-4-(3-Chloro-4-cyanophenoxy)cyclohexyl)-5-(4-((4-(4-(2,4-dioxotetrahydropyrimidin-1(2H)-yl)-1H-indazol-1-yl)piperidin-1-yl)methyl)piperidin-1-yl)pyrazine-2-carboxamide hydrochloride] | ≥ 50
5 | N#Cc1ccc(O[C@H]2CC[C@H](NC(=O)c3ccc(N4CCC(CN5CCC(n6ncc7c(N8CCC(=O)NC8=O)cccc76)CC5)CC4)nc3)CC2)cc1C(F)(F)F [EAR40, N-((1r,4r)-4-(4-Cyano-3-(trifluoromethyl)phenoxy)cyclohexyl)-6-(4-((4-(4-(2,4-dioxotetrahydropyrimidin-1(2H)-yl)-1H-indazol-1-yl)piperidin-1-yl)methyl)piperidin-1-yl)nicotinamide hydrochloride] | ≥ 50
6 | N#Cc1ccc(O[C@H]2CC[C@H](NC(=O)c3ccc(N4CCC(CN5CCC(n6ncc7c(N8CCC(=O)NC8=O)cccc76)CC5)CC4)nc3)CC2)cc1Cl [EAR42, N-((1r,4r)-4-(3-Chloro-4-cyanophenoxy)cyclohexyl)-6-(4-((4-(4-(2,4-dioxotetrahydropyrimidin-1(2H)-yl)-1H-indazol-1-yl)piperidin-1-yl)methyl)piperidin-1-yl)nicotinamide hydrochloride] | ≥ 50
7 | N#Cc1ccc(O[C@H]2CC[C@H](NC(=O)c3ccc(N4CCC(CN5CCC(n6ncc7c(N8CCC(=O)NC8=O)cccc76)CC5)CC4)nn3)CC2)cc1Cl [EAR43, N-((1r,4r)-4-(3-Chloro-4-cyanophenoxy)cyclohexyl)-6-(4-((4-(4-(2,4-dioxotetrahydropyrimidin-1(2H)-yl)-1H-indazol-1-yl)piperidin-1-yl)methyl)piperidin-1-yl)pyridazine-3-carboxamide] | ≥ 50
8 | N#Cc1ccc(O[C@H]2CC[C@H](NC(=O)c3ccc(N4CCC(CN5CCC(n6ncc7c(N8CCC(=O)NC8=O)cccc76)CC5)CC4)nn3)CC2)cc1C(F)(F)F [EAR44, N-((1r,4r)-4-(4-Cyano-3-(trifluoromethyl)phenoxy)cyclohexyl)-6-(4-((4-(4-(2,4-dioxotetrahydropyrimidin-1(2H)-yl)-1H-indazol-1-yl)piperidin-1-yl)methyl)piperidin-1-yl)pyridazine-3-carboxamide] | ≥ 50
9 | N#Cc1ccc(O[C@H]2CC[C@H](NC(=O)c3ccc(N4CCC(CN5CCC(n6ccc7c(N8CCC(=O)NC8=O)cncc76)CC5)CC4)nn3)CC2)cc1C(F)(F)F [EAR45, N-((1r,4r)-4-(4-Cyano-3-(trifluoromethyl)phenoxy)cyclohexyl)-6-(4-((4-(4-(2,4-dioxotetrahydropyrimidin-1(2H)-yl)-1H-pyrrolo[2,3-c]pyridin-1-yl)piperidin-1-yl)methyl)piperidin-1-yl)pyridazine-3-carboxamide] | ≥ 50
10 | N#Cc1ccc(O[C@H]2CC[C@H](NC(=O)c3ccc(N4CCC(CN5CCC(n6ccc7c(N8CCC(=O)NC8=O)cncc76)CC5)CC4)nn3)CC2)cc1Cl [EAR48, N-((1r,4r)-4-(3-Chloro-4-cyanophenoxy)cyclohexyl)-6-(4-((4-(4-(2,4-dioxotetrahydropyrimidin-1(2H)-yl)-1H-pyrrolo[2,3-c]pyridin-1-yl)piperidin-1-yl)methyl)piperidin-1-yl)pyridazine-3-carboxamide hydrochloride] | ≥ 50
11 | N#Cc1ccc(O[C@H]2CC[C@H](NC(=O)c3ccc(N4CCC(CN5CCC(n6ccc7c(N8CCC(=O)NC8=O)cncc76)CC5)CC4)nc3)CC2)cc1Cl [EAR50, N-((1r,4r)-4-(3-Chloro-4-cyanophenoxy)cyclohexyl)-6-(4-((4-(4-(2,4-dioxotetrahydropyrimidin-1(2H)-yl)-1H-pyrrolo[2,3-c]pyridin-1-yl)piperidin-1-yl)methyl)piperidin-1-yl)nicotinamide hydrochloride] | ≥ 50
12 | N#Cc1ccc(O[C@H]2CC[C@H](NC(=O)c3ccc(N4CCC(CN5CCC(n6ncc7c(N8CCC(=O)NC8=O)nccc76)CC5)CC4)nn3)CC2)cc1Cl [EAR51, N-((1r,4r)-4-(3-Chloro-4-cyanophenoxy)cyclohexyl)-6-(4-((4-(4-(2,4-dioxotetrahydropyrimidin-1(2H)-yl)-1H-pyrazolo[4,3-c]pyridin-1-yl)piperidin-1-yl)methyl)piperidin-1-yl)pyridazine-3-carboxamide] | ≥ 50
13 | N#Cc1ccc(O[C@H]2CC[C@H](NC(=O)c3ccc(N4CCC(CN5CCC(n6ncc7c(N8CCC(=O)NC8=O)cncc76)CC5)CC4)nn3)CC2)cc1Cl [EAR53, N-((1r,4r)-4-(3-Chloro-4-cyanophenoxy)cyclohexyl)-6-(4-((4-(4-(2,4-dioxotetrahydropyrimidin-1(2H)-yl)-1H-pyrazolo[3,4-c]pyridin-1-yl)piperidin-1-yl)methyl)piperidin-1-yl)pyridazine-3-carboxamide hydrochloride] | ≥ 50
14 | N#Cc1ccc(O[C@H]2CC[C@H](NC(=O)c3ccc(N4CCC(n5ccc6c(N7CCC(=O)NC7=O)cccc65)CC4)cc3)CC2)cc1Cl [EAR54, N-((1r,4r)-4-(3-Chloro-4-cyanophenoxy)cyclohexyl)-4-(4-(4-(2,4-dioxotetrahydropyrimidin-1(2H)-yl)-1H-indol-1-yl)piperidin-1-yl)benzamide] | ≥ 50
15 | CC1(C)[C@H](NC(=O)c2ccc(N3CCC(CN4CCC(n5ccc6c(N7CCC(=O)NC7=O)cccc65)CC4)CC3)nn2)C(C)(C)[C@H]1Oc1ccc(C#N)c(Cl)c1 [EAR55, N-((1r,3r)-3-(3-Chloro-4-cyanophenoxy)-2,2,4,4-tetramethylcyclobutyl)-6-(4-((4-(4-(2,4-dioxotetrahydropyrimidin-1(2H)-yl)-1H-indol-1-yl)piperidin-1-yl)methyl)piperidin-1-yl)pyridazine-3-carboxamide] | ≥ 50
16 | CC1(C)[C@H](NC(=O)c2ccc(N3CCC(CN4CCC(n5ccc6c(N7CCC(=O)NC7=O)cncc65)CC4)CC3)nn2)C(C)(C)[C@H]1Oc1ccc(C#N)c(Cl)c1 [EAR56, N-((1r,3r)-3-(3-Chloro-4-cyanophenoxy)-2,2,4,4-tetramethylcyclobutyl)-6-(4-((4-(4-(2,4-dioxotetrahydropyrimidin-1(2H)-yl)-1H-pyrrolo[2,3-c]pyridin-1-yl)piperidin-1-yl)methyl)piperidin-1-yl)pyridazine-3-carboxamide] | ≥ 50
17 | N#Cc1ccc(O[C@H]2CC[C@H](NC(=O)c3ccc(N4CCC(CCN5CCC(n6ccc7c(N8CCC(=O)NC8=O)cccc76)CC5)CC4)nn3)CC2)cc1Cl [EAR57, N-((1r,4r)-4-(3-Chloro-4-cyanophenoxy)cyclohexyl)-6-(4-(2-(4-(4-(2,4-dioxotetrahydropyrimidin-1(2H)-yl)-1H-indol-1-yl)piperidin-1-yl)ethyl)piperidin-1-yl)pyridazine-3-carboxamide hydrochloride] | ≥ 50
